Consider 13 compounds from patent publication US20260116921A1, “PEPTIDE INHIBITORS OF INTERLEUKIN-23 RECEPTOR AND THEIR USE TO TREAT INFLAMMATORY DISEASES” (priority 2018, published 2026).

In data set [1] the target is T1, IL-23R (Homo sapiens, UniProt Q5VWK5).
T1 sequence (Q5VWK5 24-629): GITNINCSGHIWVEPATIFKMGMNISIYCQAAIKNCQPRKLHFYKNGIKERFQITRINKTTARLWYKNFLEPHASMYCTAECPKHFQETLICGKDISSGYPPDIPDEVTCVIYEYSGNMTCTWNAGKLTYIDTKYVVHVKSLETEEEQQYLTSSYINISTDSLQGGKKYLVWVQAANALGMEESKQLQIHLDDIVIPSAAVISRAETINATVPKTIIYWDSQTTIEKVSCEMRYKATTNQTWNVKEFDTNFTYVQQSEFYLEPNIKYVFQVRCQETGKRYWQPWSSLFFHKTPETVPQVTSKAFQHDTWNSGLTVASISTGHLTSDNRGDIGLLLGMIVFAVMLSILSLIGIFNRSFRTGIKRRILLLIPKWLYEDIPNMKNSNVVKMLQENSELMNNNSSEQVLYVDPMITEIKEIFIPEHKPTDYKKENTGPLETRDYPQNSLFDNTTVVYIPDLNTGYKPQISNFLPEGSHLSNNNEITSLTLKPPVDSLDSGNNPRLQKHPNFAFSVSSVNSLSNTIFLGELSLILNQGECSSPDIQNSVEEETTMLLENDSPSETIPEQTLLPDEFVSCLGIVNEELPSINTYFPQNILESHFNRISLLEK
Description: DB cells IL23R pSTAT3 cell assay (pStat3 HTRF). The class given is cell-based. In outline:
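HTRF readout of lysate pSTAT3 (Tyr705) after two-plate processing. Peptide dilution series co-incubated with IL-23 (0.5 nM final) on 5×10E5 IL-23R-expressing DB cells per well, 30 min, 37 °C.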

Data set [2] in a line: in vitro. Conditions: human, 20% fecal homogenate (supernatant), anaerobic, pH 6.8.
Description: (§1) Fecal homogenate (20%) was prepared by adding 4 mL of growth medium (1 liter contains 2 g peptone water powder, 2 g yeast extract, 0.1 g NaCl, 0.04 g KH2PO4, 0.01 g CaCl2·6H2O, 0.01 g MgSO4·7H2O, 2 mL Tween 80, 0.5 g bile salts, 0.5 g L-cysteine HCl, 2 g NaHCO3, and 10 μL Vitamin K, pH adjusted to 6.8, and sterilized by filtration through a 0.22 μm filter) to every gram of feces (pooled freshly collected human or cynomolgus monkey feces). The suspension was vortexed to break up large clumps, and homogenized using a bead mill homogenizer. Centrifuged the homogenate at 2800×g for 15 min. The supernatant is taken out and used for incubations. DMSO stocks (10 mM) were first prepared for the test compounds. Incubations were performed in an anaerobic chamber conditioned at 37° C. Aliquots of the DMSO solutions were dosed into 1.0 mL aliquots of 20% fecal homogenate, which are pre-warmed to 37° C. The final test compound concentration was 20 μM. At each timepoint (0, 20 min, 1, 3, 6, or 24 hours), 100 μL aliquot of each incubation mixture is taken out and added to separate tubes containing 300 μL of 50% acetonitrile/50% methanol and an internal standard to terminate the reaction. Samples were taken out of the anaerobic chamber and stored at 4° C. until the end of the experiment. After the final timepoint is sampled, the tubes were mixed and then centrifuged at 3,000 rpm for 10 minutes. Aliquots of the supernatant were removed, diluted 1:1 into distilled water containing 0.1% formic acid, and analyzed by LC/MS/MS. Percent remaining at each timepoint was calculated based on the peak area response ratio of test to compound to internal standard. Time 0 was set to 100%, and all later timepoints were calculated relative to time 0. Half-lives were calculated by fitting to a first-order exponential decay equation using Graphpad or Excel.
The nature of data set [3]: in vitro. To be noted: cynomolgus monkey, 20% fecal homogenate (supernatant), anaerobic, pH 6.8.
Description: as §1
A short description of data set [4]: in vitro. Conditions: both, SD, rat, plasma (EDTA).
Description: Peptides of interest (20 μM) were incubated with pre-warmed rat plasma (SD rat, mixed gender pooled, EDTA, filtered through 0.22 μm, BioreclamationIVT) at 37° C. […] Quenched samples were stored at 4° C. until the end of the experiment and centrifuged at 4,000 rpm for 10 minutes. The supernatant were diluted 1:1 with deionized water and analyzed using LC-MS. Percentage remaining at each time point was calculated based on the peak area ratio (analyte over internal standard) relative to the initial level at time zero. Half-lives were calculated by fitting to a first-order exponential decay equation using GraphPad.
A short description of data set [5]: in vitro. The class given is in vitro ADME. More on the design: half-life: dose or concentration left out as unconfirmed. Conditions: simulated intestinal fluid (SIF) with pancreatin, pH 6.8, 37° C., § matrix is 100 fold dilution of standard SIF concentration, read-out: SIF t½ (converted).
Setting [6] is: Table E3, DB cells, IL-23 0.5 nM, 30 minutes at 37° C., read-out: pStat3 HTRF (IC50).

SMILES strings stand for the structures. Where two headings read alike, the source gives them in different places. Numbered stars: 1 amine (or outer) side, 2 acyl side, 3 side chain; on linkers, the order of the positions; unused ones are H or OH. Bridge positions count the residues as written; N and C are the ends. Square brackets hold non-standard residues; d marks the D form. Peptide text beside a SMILES is read from it. X4 = CC(C)c1cccc2c(C[C@H](N[*:1])C(=O)[*:2])c[nH]c12; Trp(7-Me) = Cc1cccc2c(C[C@H](N)C(=O)O)c[nH]c12; Trp(1-Me) = Cn1cc(C[C@H](N)C(=O)O)c2ccccc21; 2Nal = N[C@@H](Cc1ccc2ccccc2c1)C(=O)O; AEF = NCCOc1ccc(C[C@H](N)C(=O)O)cc1; Cit = NC(=O)NCCC[C@H](N)C(=O)O; Pen = CC(C)(S)[C@H](N)C(=O)O; αMeK = C[C@](N)(CCCCN)C(=O)O; βAla = NCCC(=O)O

In data set [1], `CC(=O)NCCCC[C@@H]1NC(=O)[C@H](Cc2c[nH]c3c(C)cccc23)NC(=O)[C@H]([C@@H](C)O)NC(=O)[C@H](CC(N)=O)NC(=O)[C@@H](NC(C)=O)C(C)(C)SSC(C)(C)[C@@H](C(=O)N[C@@H](Cc2ccc(OCCN)cc2)C(=O)N[C@@H](Cc2ccc3ccccc3c2)C(=O)N[C@@](C)(CCCCN)C(=O)N[C@@H](CCCCNC(C)=O)C(=O)N[C@@H](CC(N)=O)C(=O)N[C@H](CC(N)=O)Cc2ccccc2)NC1=O` [compound 247] gave an IC50 of 1 to 10 nM. Moreover, the half-life at 20 μM in data set [2], in data set [3] and in data set [4] was more than 24 h in each case.
With `CC(=O)NCCCC[C@H](NC(=O)[C@](C)(CCCCN)NC(=O)[C@H](Cc1ccc2ccccc2c1)NC(=O)[C@H](Cc1ccc(OCCN)cc1)NC(=O)[C@H]1NC(=O)[C@H](CCCNC(N)=O)NC(=O)[C@H](Cc2c[nH]c3c(C)cccc23)NC(=O)[C@H]([C@@H](C)O)NC(=O)[C@H](CC(N)=O)NC(=O)[C@@H](NC(C)=O)C(C)(C)SSC1(C)C)C(=O)N[C@@H](CC(N)=O)C(=O)N[C@H](CCCNC(=N)N)C(N)=O` [compound 256] (Ac-[Pen]NT[Trp(7-Me)][Cit][Pen][AEF][2Nal][αMeK]K(Ac)N[dR]-NH2; disulfide 1-6), the IC50 in data set [1] (setting [6]) was less than 1 nM. Also, the half-life at 20 μM in data set [2], in data set [3] and in data set [4] was more than 24 h in each case.
On to `CC(=O)NCCCC[C@H](NC(=O)[C@](C)(CCCCN)NC(=O)[C@H](Cc1ccc2ccccc2c1)NC(=O)[C@H](Cc1ccc(OCCN)cc1)NC(=O)[C@H]1NC(=O)[C@H](CCCNC(N)=O)NC(=O)[C@H](Cc2c[nH]c3c(C)cccc23)NC(=O)[C@H]([C@@H](C)O)NC(=O)[C@H](CC(N)=O)NC(=O)[C@@H](NC(C)=O)C(C)(C)SSC1(C)C)C(=O)N[C@@H](CC(N)=O)C(=O)N[C@@H](CO)C(N)=O` [compound 260] (Ac-[Pen]NT[Trp(7-Me)][Cit][Pen][AEF][2Nal][αMeK]K(Ac)NS-NH2; disulfide 1-6), for which, in data set [1] (setting [6]), the IC50 was less than 1 nM. The half-life at 20 μM was 15 h in data set [2], 3 h in data set [3] and more than 24 h in data set [4].
Take `CC(=O)NCCCC[C@H](NC(=O)[C@](C)(CCCCN)NC(=O)[C@H](Cc1ccc2ccccc2c1)NC(=O)[C@H](Cc1ccc(OCCN)cc1)NC(=O)[C@H]1NC(=O)[C@H](CCCNC(N)=O)NC(=O)[C@H](Cc2c[nH]c3c(C)cccc23)NC(=O)[C@H]([C@@H](C)O)NC(=O)[C@H](CC(N)=O)NC(=O)[C@@H](NC(C)=O)C(C)(C)SSC1(C)C)C(=O)N[C@@H](CC(N)=O)C(=O)N[C@H](C(N)=O)[C@@H](C)O` [compound 262] (Ac-[Pen]NT[Trp(7-Me)][Cit][Pen][AEF][2Nal][αMeK]K(Ac)NT-NH2; disulfide 1-6): the IC50 in data set [1] (setting [6]) fell in the range of 1 to 10 nM. The half-life at 20 μM in data set [2] is 15 h; in data set [3], 3 h; in data set [4], more than 24 h.
Take `CC(=O)NCCCC[C@H](NC(=O)[C@](C)(CCCCN)NC(=O)[C@H](Cc1ccc2ccccc2c1)NC(=O)[C@H](Cc1ccc(OCCN)cc1)NC(=O)[C@H]1NC(=O)[C@H](CCCNC(N)=O)NC(=O)[C@H](Cc2c[nH]c3c(C)cccc23)NC(=O)[C@H]([C@@H](C)O)NC(=O)[C@H](CC(N)=O)NC(=O)[C@@H](NC(C)=O)C(C)(C)SSC1(C)C)C(=O)N[C@@H](CC(N)=O)C(=O)N[C@@H](Cc1ccc(O)cc1)C(N)=O` [compound 266] (Ac-[Pen]NT[Trp(7-Me)][Cit][Pen][AEF][2Nal][αMeK]K(Ac)NY-NH2; disulfide 1-6): the IC50 in data set [1] (setting [6]) fell in the range of 1 to 10 nM. Further, the values for the half-life at 20 μM in data set [2], in data set [3] and in data set [4] were 16 h, 7 h and more than 24 h, respectively.
For `CC(=O)NCCCC[C@H](NC(=O)[C@](C)(CCCCN)NC(=O)[C@H](Cc1ccc2ccccc2c1)NC(=O)[C@H](Cc1ccc(OCCN)cc1)NC(=O)[C@H]1NC(=O)[C@H](CCC(N)=O)NC(=O)[C@H](Cc2c[nH]c3c(C)cccc23)NC(=O)[C@H]([C@@H](C)O)NC(=O)[C@H](CC(N)=O)NC(=O)[C@@H](NC(C)=O)C(C)(C)SSC1(C)C)C(=O)N[C@@H](CC(C)C)C(=O)NCCC(N)=O` [compound 269], in that order: 1 to 10 nM, more than 24 h, more than 24 h and more than 24 h.
For `CC(=O)NCCCC[C@@H]1NC(=O)[C@H](Cc2c[nH]c3c(C)cccc23)NC(=O)[C@H]([C@@H](C)O)NC(=O)[C@H](CC(N)=O)NC(=O)[C@@H](NC(C)=O)C(C)(C)SSC(C)(C)[C@@H](C(=O)N[C@@H](Cc2ccc(OCCN)cc2)C(=O)N[C@@H](Cc2ccc3ccccc3c2)C(=O)N[C@@](C)(CCCCN)C(=O)N[C@@H](CCCCNC(C)=O)C(=O)NCCC(=O)NCCC(N)=O)NC1=O` [compound 270], in that order: 1 to 10 nM, more than 24 h, more than 24 h and more than 24 h.
For `CC(=O)NCCCC[C@H](NC(=O)[C@](C)(CCCCN)NC(=O)[C@H](Cc1cn(C)c2ccccc12)NC(=O)[C@H](Cc1ccc(OCCN)cc1)NC(=O)[C@H]1NC(=O)[C@H](CCC(N)=O)NC(=O)[C@H](Cc2c[nH]c3c(C)cccc23)NC(=O)[C@H]([C@@H](C)O)NC(=O)[C@H](CC(N)=O)NC(=O)[C@@H](NC(C)=O)C(C)(C)SSC1(C)C)C(=O)N[C@@H](CC(N)=O)C(=O)NCCC(N)=O` [compound 283] (Ac-[Pen]NT[Trp(7-Me)]Q[Pen][AEF][Trp(1-Me)][αMeK]K(Ac)N[βAla]-NH2; disulfide 1-6), in that order: 1 to 10 nM, more than 24 h, 17 h and more than 24 h.
`CC(=O)NCCCC[C@@H]1NC(=O)[C@H](Cc2c[nH]c3c(C(C)C)cccc23)NC(=O)[C@H]([C@@H](C)O)NC(=O)[C@H](CC(N)=O)NC(=O)[C@@H](NC(C)=O)C(C)(C)SSC(C)(C)[C@@H](C(=O)N[C@@H](Cc2ccc(OCCN)cc2)C(=O)N[C@@H](Cc2ccc3ccccc3c2)C(=O)N[C@@](C)(CCCCN)C(=O)N[C@@H](CCCCNC(C)=O)C(=O)N[C@@H](CC(N)=O)C(=O)N[C@H](CC(C)C)C(N)=O)NC1=O` [compound 286] (Ac-[Pen]NT[X4]K(Ac)[Pen][AEF][2Nal][αMeK]K(Ac)N[dL]-NH2; disulfide 1-6): the IC50 in data set [1] (setting [6]) was in the range of 1 to 10 nM. Moreover, the half-life at 20 μM in data set [2], in data set [3] and in data set [4] was more than 24 h in each case.
Turning to `CC(=O)NCCCC[C@H](NC(=O)[C@](C)(CCCCN)NC(=O)[C@H](Cc1ccc2ccccc2c1)NC(=O)[C@H](Cc1ccc(OCCN)cc1)NC(=O)[C@H]1NC(=O)[C@H](CCCCNC(=O)CC(C)C)NC(=O)[C@H](Cc2c[nH]c3c(C)cccc23)NC(=O)[C@H]([C@@H](C)O)NC(=O)[C@H](CC(N)=O)NC(=O)[C@@H](NC(C)=O)C(C)(C)SSC1(C)C)C(=O)N[C@@H](CC(N)=O)C(=O)N[C@H](CC(C)C)C(N)=O` [compound 315], the IC50 in data set [1] (setting [6]) is 1 to 10 nM. Besides, the half-life in data set [5] was 9 h.
As to `CC(=O)NCCCC[C@H](NC(=O)[C@](C)(CCCCN)NC(=O)[C@H](Cc1ccc2ccccc2c1)NC(=O)[C@H](Cc1ccc(OCCN)cc1)NC(=O)[C@H]1NC(=O)[C@H](CCCCNC(=O)C2CCCCC2)NC(=O)[C@H](Cc2c[nH]c3c(C)cccc23)NC(=O)[C@H]([C@@H](C)O)NC(=O)[C@H](CC(N)=O)NC(=O)[C@@H](NC(C)=O)C(C)(C)SSC1(C)C)C(=O)N[C@@H](CC(N)=O)C(=O)N[C@H](CC(C)C)C(N)=O` [compound 316], the IC50 in data set [1] (setting [6]) lay in the range of 1 to 10 nM. Also, in data set [5], the half-life is 7 h.
For `CC(=O)NCCCC[C@H](NC(=O)[C@](C)(CCCCN)NC(=O)[C@H](Cc1ccc2ccccc2c1)NC(=O)[C@H](Cc1ccc(OCCN)cc1)NC(=O)[C@H]1NC(=O)[C@H](CCCCNC(=O)CN)NC(=O)[C@H](Cc2c[nH]c3c(C)cccc23)NC(=O)[C@H]([C@@H](C)O)NC(=O)[C@H](CC(N)=O)NC(=O)[C@@H](NC(C)=O)C(C)(C)SSC1(C)C)C(=O)N[C@@H](CC(N)=O)C(=O)N[C@H](CC(C)C)C(N)=O` [compound 320], in that order: less than 1 nM and 12 h.
For `CC(=O)NCCCC[C@H](NC(=O)[C@](C)(CCCCN)NC(=O)[C@H](Cc1ccc2ccccc2c1)NC(=O)[C@H](Cc1ccc(OCCN)cc1)NC(=O)[C@H]1NC(=O)[C@H](CCCCNC(=O)CCN)NC(=O)[C@H](Cc2c[nH]c3c(C)cccc23)NC(=O)[C@H]([C@@H](C)O)NC(=O)[C@H](CC(N)=O)NC(=O)[C@@H](NC(C)=O)C(C)(C)SSC1(C)C)C(=O)N[C@@H](CC(N)=O)C(=O)N[C@H](CC(C)C)C(N)=O` [compound 321], in that order: 1 to 10 nM and 3 h.
